Experiments:
[1] = target: Human recombinant adenosine A2A receptor (Homo sapiens, UniProt P29274); assay: Human adenosine A2A receptor binding assay with [3H] CGS-21680 (Example 4.2); conditions: for activity as dual antagonists of both A2A and A1 receptors (in words): summary of Table 5, binding assays of Examples 4.1 and 4.2
Description: Test compound is weighed, dissolved in DMSO to make a stock solution of 10 mM, diluted with DMSO to prepare working solutions, then 100-fold diluted to the indicated concentrations. Human recombinant adenosine A2A receptors expressed in HEK-293 cells were used to prepare membranes in incubation buffer (50 mM Tris-HCl, pH 7.4, 10 mM MgCl2, 1 mM EDTA, 2 U/ml Adenosine Deaminase). Test compound or vehicle (2.2 μL) was added in 200 μL of membranes and incubated with 20 μL of 50 nM [^3H] […] Non-specific binding was estimated in the presence of 50 μM NECA (5′-N-ethylcarboxamidoadenosine). The incubation was stopped by vacuum filtration onto 0.3% PEI (polyethylenimine) presoaked GF/B filters using a harvester followed by four washes with ice-cold 50 mM Tris-HCl, pH 7.4, and the radioactivity on GF/B filtermats counted in a scintillation counter (PerkinElmer Topcount™) to determine [^3H] […] Final concentration of vehicle DMSO is 1%.

[2] = target: T1, Human recombinant adenosine A1 receptors (Homo sapiens, UniProt P30542); assay: Human adenosine A1 receptor binding assay with [3H] DPCPX (pyrazolo-pyrimidine compounds, Example 4.1); conditions: membranes of CHO-K1 cells, read-out: hA1 Ki
T1 construct: expressed in transfected cells; host or cells: CHO-K1, membrane preparation
T1 sequence (P30542 1-326): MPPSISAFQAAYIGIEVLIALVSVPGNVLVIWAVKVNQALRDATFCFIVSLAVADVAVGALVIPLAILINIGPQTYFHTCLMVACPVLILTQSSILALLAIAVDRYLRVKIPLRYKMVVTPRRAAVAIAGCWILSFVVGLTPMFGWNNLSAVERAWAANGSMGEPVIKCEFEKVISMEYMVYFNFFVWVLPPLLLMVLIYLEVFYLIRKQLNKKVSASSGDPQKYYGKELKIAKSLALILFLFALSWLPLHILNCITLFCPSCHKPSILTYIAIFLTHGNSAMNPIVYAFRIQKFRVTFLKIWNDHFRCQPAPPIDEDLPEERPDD
Description: Test compound is weighed, dissolved in DMSO to make a stock solution of 10 mM, diluted with DMSO to prepare working solutions, then 100-fold diluted to the indicated concentrations. Human recombinant adenosine A1 receptors expressed in CHO-K1 cells were used to prepare membranes in incubation buffer (20 mM HEPES (4-(2-hydroxyethyl)-1-piperazineethanesulfonic acid) pH 7.4, 10 mM MgCl2, 100 mM NaCl). Test compound or vehicle (2.2 μL) was added in 200 μL of membranes and incubated with 20 μL of 1 nM [^3H] DPCPX (8-cyclopentyl-1,3-dipropylxanthine) for 90 minutes at 25° C. Non-specific binding was estimated in the presence of 100 μM R(−)-PIA ((R)—N-(1-methyl-2-phenylethyl)adenosine). The incubation was stopped by vacuum filtration onto 0.3% PEI (polyethylenimine) presoaked GF/B filters using a harvester followed by four washes with ice-cold 50 mM Tris-HCl, pH 7.4, and the radioactivity on GF/B filtermats counted in a scintillation counter (PerkinElmer Topcount™) to determine [^3H] DPCPX specifically bound. Final concentration of vehicle DMSO is 1%.
Data is fitted using the non-linear curve fitting routines in Meth-IQ software (ID Business Solutions Ltd., UK).

Human recombinant adenosine A2A receptor, sequence (P29274 whole entry): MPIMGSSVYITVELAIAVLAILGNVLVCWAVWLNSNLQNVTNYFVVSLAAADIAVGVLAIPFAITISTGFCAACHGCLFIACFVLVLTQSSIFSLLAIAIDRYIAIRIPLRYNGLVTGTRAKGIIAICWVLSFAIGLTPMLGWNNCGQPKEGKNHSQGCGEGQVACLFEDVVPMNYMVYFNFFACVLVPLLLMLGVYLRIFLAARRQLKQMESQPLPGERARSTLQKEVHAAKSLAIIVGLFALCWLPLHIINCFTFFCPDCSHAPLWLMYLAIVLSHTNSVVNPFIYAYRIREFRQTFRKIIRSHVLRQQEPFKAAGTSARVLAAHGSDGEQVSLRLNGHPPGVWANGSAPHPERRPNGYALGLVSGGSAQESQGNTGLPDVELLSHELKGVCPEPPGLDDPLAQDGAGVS

| Compound | activity as dual antagonists of both A2A and A1 receptors (in words) [1] | Ki [2] [µM] | Ki [1] [µM] |
| --- | --- | --- | --- |
| Cc1cc(Cn2ncc3c(-c4cccc(C#N)c4F)nc(N)nc32)ccc1N [Compound 206, 3-(6-amino-1-(4-amino-3-methylbenzyl)-1H-pyrazolo[3,4-d]pyrimidin-4-yl)-2-fluorobenzonitrile] | potent activity as dual antagonists |  |  |
| N#Cc1cccc(-c2nc(N)nc3c2cnn3Cc2c(F)cc(N)cc2F)c1 [Compound 207, 3-(6-amino-1-(4-amino-2,6-difluorobenzyl)-1H-pyrazolo[3,4-d]pyrimidin-4-yl)benzonitrile] | potent activity as dual antagonists |  |  |
| N#Cc1cccc(-c2nc(N)nc3c2cnn3Cc2c(F)cc(N)cc2F)c1F [Compound 208, 3-(6-amino-1-(4-amino-2,6-difluorobenzyl)-1H-pyrazolo[3,4-d]pyrimidin-4-yl)-2-fluorobenzonitrile] | potent activity as dual antagonists | ≤ 0.1 | < 0.02 |
| N#Cc1cccc(-c2nc(N)nc3c2cnn3Cc2ccc(N)c(C(F)(F)F)c2)c1F [Compound 211, 3-(6-amino-1-(4-amino-3-(trifluoromethyl)benzyl)-1H-pyrazolo[3,4-d]pyrimidin-4-yl)-2-fluorobenzonitrile] | potent activity as dual antagonists |  |  |
| N#Cc1cccc(-c2nc(N)nc3c2cnn3Cc2c(F)cccc2F)c1F [Compound 213, 3-(6-amino-1-(2,6-difluorobenzyl)-1H-pyrazolo[3,4-d]pyrimidin-4-yl)-2-fluorobenzonitrile] | potent activity as dual antagonists |  |  |
